Measurements from US10697020B2, “MicroRNA-129 as a biomarker for colorectal cancer” (THE RESEARCH FOUNDATION FOR THE STATE UNIVERSITY OF NEW YORK, priority 2013, dated 2020).
Read-outs that look alike come from different tables or passages of the source.

Legend:
HCT116 cells [1] = experiment: 5-FU treatment and cytotoxicity assay (WST-1); assay type: cell-based; details: Homo sapiens, HCT-116, 72 h, read-out: IC50 (50% growth inhibition, WST-1)
Method: Twenty-four hours after transfection, HCT116 cells were plated in 96-well plates at 2×10^3 cells per well in triplicates in 100 μl of medium. After 24 hours, fresh medium containing 5-FU alone (ranged from 1 to 4 μM) or miR-129 precursor alone (ranged from 10 nM to 40 nM) or 5-FU and miR-129 together (at a constant ratio 1:10, with increasing concentrations of both compounds) were added, and cells were cultured for an additional 72 hours. Cell viability was measured using the WST-1 assay, and concentration-dependent curves were generated based on the cell viability. The combination index was calculated by CompuSyn software. See, Chou T C et al. (2007).

HCT116 cells [2] = experiment: Colorectal cancer xenografts (HCT116) in NOD/SCID mice, tumor volume; assay type: in vivo; details: day 24
Method: When solid and palpable tumors with an average volume of 100-150 mm^3 were formed (at day 14), mice were randomly separated into four groups such that each group was treated either with negative control miRNA, miR-129 alone, 5-FU alone or miR-129 and 5-FU together. The miRNAs were complexed with siPORTamine and injected intratumorally while 5-FU (50 μg g^−1) was injected systemically via the tail vein. All injections were provided in 3-day intervals for a total of three times before the tumors were collected at day 24. […] Importantly, despite the overexpression, the expression levels of miR-129 copy number remained within the physiological range (less than 20 copies/cell based on cycle threshold value at 30, which is equal to the expression of miR-129 in normal colon mucosa). Moreover, the control tumor xenografts had no miR-129 expression (cycle threshold value at 35).
Ten-twelve week old NOD/SCID mice (Jackson Laboratories, Bar Harbor, […]., USA) were used for tumor implantation. All animal procedures were approved by the Stony Brook University Institutional Animal Care and Use Committee (IACUC). The tumor implantation and miRNA injection protocol was modified from Trang et al. (see Trang P., et al., Oncogene. (2010) 29(11):1580-7). The mice were anesthetized by isoflurane inhalation. HCT116 cells were subcutaneously injected into the lower back areas of the mice using 2.5×10^6 cells in 100 μl McCoy's 5A with 50% matrigel (BD Biosciences). The tumor size was measured using a caliper and tumor volume was calculated using the formula V=length×width^2/2. When tumor volumes reach 100-150 mm^3 at day 14 post-injection, the mice were randomly assigned into four groups. For the first two groups, 10 μM negative miRNA or miR-129 precursor (Ambion) complexed with 1.6 μl siPORTAmine (Ambion) in 50 μl McCoy's 5A was injected into the tumors every three days. For the third group, 5-FU (Sigma-Aldrich) was injected at 50 μg/g via the tail vein every three days. Finally, for the last group, both miR-129 precursor and 5-FU were injected as described above. The mice were euthanized on day 24 post-injection by CO2 inhalation, and tumors were dissected out for RNA isolation.

Q: Which IC50 (HCT116 cells [1]; 5-FU alone) does the source give for `O=c1[nH]cc(F)c(=O)[nH]1` [5-FU, 5-fluoro-1H-pyrimidine-2,4-dione, reference compound] here?
A: The IC50 was 2300 nM.

Q: What about the IC50 (HCT116 cells [1]; 5-FU when combined with miR-129 (fixed ratio 1:10)) of the same compound?
A: The IC50 was 600 nM.

Q: And the “inhibition of tumor growth (in words)” value (HCT116 cells [2]; HCT116 xenograft, compared with negative miRNA or single agents)?
A: Its value is “strong inhibitory effect”.

Q: And the “average tumor volume, % of the control group” value (HCT116 cells [2]; treated days 14, 17, 20, miRNA intratumoral with siPORTamine, 5-FU 50 μg/g tail vein, control negative miRNA)?
A: The value was 48.4%.
